{
  "source": "patent US8822460B2",
  "about": "“Fused cyclopentyl antagonists of CCR2” (Janssen Pharmaceutica, NV, priority 2012, dated 2014)",
  "key": {"[1]": {"experiment": "Moisture sorption/desorption analysis", "format": "physicochemical", "conditions": "for total hygroscopic weight increase (uptake): up to 90% RH", "experimental": "The crystalline phosphate, sulfate and maleate salts of the compound of formula (I-S) were additional tested in DSC, TGA and moisture sorption/desorption. […] The moisture sorption analysis was performed using Hiden Isochema system Model IGAsorp. The sample (˜5 mg) was run in a stainless-steel mesh crucible. […] The moisture profile consisted of 2 cycles of vapor adsorption/desorption."}, "Solution solubility": {"experiment": "Solution solubility", "conditions": "thermodynamic from solid"}, "CCR2": {"target": "CCR2 (Homo sapiens (Human), UniProt P41597)", "sequence (P41597 whole entry)": "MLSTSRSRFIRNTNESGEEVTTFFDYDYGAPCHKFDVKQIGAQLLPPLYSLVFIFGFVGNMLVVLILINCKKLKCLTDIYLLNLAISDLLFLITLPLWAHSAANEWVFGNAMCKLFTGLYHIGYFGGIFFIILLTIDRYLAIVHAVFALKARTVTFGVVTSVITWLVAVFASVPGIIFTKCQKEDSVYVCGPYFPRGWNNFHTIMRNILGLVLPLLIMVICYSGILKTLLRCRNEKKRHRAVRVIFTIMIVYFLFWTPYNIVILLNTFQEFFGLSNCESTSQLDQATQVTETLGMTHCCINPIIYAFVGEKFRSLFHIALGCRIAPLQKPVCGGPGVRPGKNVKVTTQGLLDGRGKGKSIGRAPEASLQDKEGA", "experiment": "MCP-1 Receptor Binding Assay in THP-1 Cells", "conditions": "stated as 'believed to have', approximate ('about')", "experimental": "Human monocytic cell line THP-1 cells were obtained from American Type Culture Collection (Manassas, Va., USA). […] The cell density was maintained […].\n1 μM cold MCP-1 was used for nonspecific binding."}, "hCCR2KI mice": {"tested_on": "hCCR2KI mice", "experiment": "animal or person", "format": "in vivo, mouse"}, "[2]": {"tested_on": "high-fat diet induced obese mice", "experiment": "High-Fat Diet Induced Obesity and Insulin Resistance in Mice"}},
  "note": "Values joined by “and” are separate entries in the source; they are usually repeats but may differ in a detail not shown here. Equal values may be shown once. Where a name gives a salt, the structure may show the parent alone.",
  "data": [
    {"smiles": "CO[C@@H]1COCC[C@@H]1N[C@@H]1C[C@H]2OCC[C@@]2(C(=O)N2CCc3ncc(C(F)(F)F)cc3C2)C1.O=C(O)CCC(=O)O", "note": "[((3aS,5S,6aR)-5-(((3S,4S)-3-methoxytetrahydro-2H-pyran-4-yl)amino)hexahydro-2H-cyclopenta[b]furan-3a-yl)(3-(trifluoromethyl)-7,8-dihydro-1,6-naphthyridin-6(5H)-yl)methanone]", "values": [
      {"measurement": "moisture retained at the end of the desorption phase", "setting": "[1]; multiple sorption/desorption cycles, 25° C.", "value": "about 2.7%"},
      {"measurement": "hygroscopic weight increase", "setting": "[1]; up to 70% RH", "value": 3.8, "unit": "%"},
      {"measurement": "total hygroscopic weight increase (uptake)", "setting": "[1]", "value": 70, "unit": "%"},
      {"measurement": "solubility", "setting": "Solution solubility; 0.1N NaOH, aqueous buffer", "value": "> 100", "unit": "mg/mL"},
      {"measurement": "solubility", "setting": "Solution solubility; 0.5% methocel, aqueous with cosolvent or surfactant or cyclodextrin", "value": "> 100", "unit": "mg/mL"},
      {"measurement": "solubility", "setting": "Solution solubility; 20% HpbCD, aqueous with cosolvent or surfactant or cyclodextrin", "value": "> 100", "unit": "mg/mL"},
      {"measurement": "solubility", "setting": "Solution solubility; borate buffer, pH 8, aqueous buffer", "value": "> 100", "unit": "mg/mL"},
      {"measurement": "solubility", "setting": "Solution solubility; borate buffer, pH 10, aqueous buffer", "value": "> 100", "unit": "mg/mL"},
      {"measurement": "solubility", "setting": "Solution solubility; citrate buffer, pH 2, aqueous buffer", "value": "> 100", "unit": "mg/mL"},
      {"measurement": "solubility", "setting": "Solution solubility; citrate buffer, pH 4, aqueous buffer", "value": "> 100", "unit": "mg/mL"},
      {"measurement": "solubility", "setting": "Solution solubility; citrate buffer, pH 6, aqueous buffer", "value": "> 100", "unit": "mg/mL"},
      {"measurement": "solubility", "setting": "Solution solubility; simulated gastric fluid", "value": "> 100", "unit": "mg/mL"},
      {"measurement": "solubility", "setting": "Solution solubility; simulated intestinal fluid, fassgf or other biorelevant", "value": "> 100", "unit": "mg/mL"},
      {"measurement": "solubility", "setting": "Solution solubility; water", "value": "> 50", "unit": "mg/mL"}
    ]},
    {"smiles": "COC1COCCC1N[C@@H]1C[C@H]2OC(CC(C)C)C[C@@]2(C(=O)N2CCc3ncc(C(F)(F)F)cc3C2)C1", "note": "(stereo partly drawn) [Example 14, ((3aS,5S,6aR)-2-isobutyl-5-((3-methoxytetrahydro-2H-pyran-4-yl)amino)hexahydro-2H-cyclopenta[b]furan-3a-yl)(3-(trifluoromethyl)-7,8-dihydro-1,6-naphthyridin-6(5H)-yl)methanone]", "values": [
      {"measurement": "IC50", "setting": "CCR2", "value": "50 to 100", "unit": "nM"}
    ]},
    {"smiles": "COC1COCCC1N[C@@H]1C[C@H]2OC(C3CCCCC3)C[C@@]2(C(=O)N2CCc3ncc(C(F)(F)F)cc3C2)C1", "note": "(stereo partly drawn) [Example 15, ((3aS,5S,6aR)-2-cyclohexyl-5-((3-methoxytetrahydro-2H-pyran-4-yl)amino)hexahydro-2H-cyclopenta[b]furan-3a-yl)(3-(trifluoromethyl)-7,8-dihydro-1,6-naphthyridin-6(5H)-yl)methanone]", "values": [
      {"measurement": "IC50", "setting": "CCR2", "value": "< 50", "unit": "nM"}
    ]},
    {"smiles": "COC1COCCC1N[C@@H]1C[C@H]2OC(c3ccnn3C)C[C@@]2(C(=O)N2CCc3ncc(C(F)(F)F)cc3C2)C1", "note": "(stereo partly drawn) [Example 17, ((3aS,5S,6aR)-5-((3-methoxytetrahydro-2H-pyran-4-yl)amino)-2-(1-methyl-1H-pyrazol-5-yl)hexahydro-2H-cyclopenta[b]furan-3a-yl)(3-(trifluoromethyl)-7,8-dihydro-1,6-naphthyridin-6(5H)-yl)methanone]", "values": [
      {"measurement": "IC50", "setting": "CCR2", "value": "100 to 200", "unit": "nM"}
    ]},
    {"smiles": "COC1COCCC1N[C@@H]1C[C@H]2OC(c3nccn3C)C[C@@]2(C(=O)N2CCc3ncc(C(F)(F)F)cc3C2)C1", "note": "(stereo partly drawn) [Example 18, ((3 aS,5S,6aR)-5-((3-methoxytetrahydro-2H-pyran-4-yl)amino)-2-(1-methyl-1H-imidazol-2-yl)hexahydro-2H-cyclopenta[b]furan-3a-yl)(3-(trifluoromethyl)-7,8-dihydro-1,6-naphthyridin-6(5H)-yl)methanone]", "values": [
      {"measurement": "IC50", "setting": "CCR2", "value": "> 200", "unit": "nM"}
    ]},
    {"smiles": "CO[C@@H]1COCC[C@@H]1N[C@@H]1C[C@H]2OCC[C@@]2(C(=O)N2CCN(c3cccc(C(F)(F)F)n3)CC2)C1", "note": "[Example 24, ((3 aS,5S,6aR)-5-(((3S,4S)-3-methoxytetrahydro-2H-pyran-4-yl)amino)hexahydro-2H-cyclopenta[b]furan-3a-yl)(4-(6-(trifluoromethyl)pyridin-2-yl)piperazin-1-yl)methanone]", "values": [
      {"measurement": "IC50", "setting": "CCR2", "value": "> 200", "unit": "nM"}
    ]},
    {"smiles": "CO[C@@H]1COCC[C@@H]1N[C@@H]1C[C@H]2OCC[C@@]2(C(=O)N2CCN(c3ccnc(C(F)(F)F)n3)CC2)C1", "note": "[Example 28, ((3aS,5S,6aR)-5-(((3S,4S)-3-methoxytetrahydro-2H-pyran-4-yl)amino)hexahydro-2H-cyclopenta[b]furan-3a-yl)(4-(2-(trifluoromethyl)pyrimidin-4-yl)piperazin-1-yl)methanone]", "values": [
      {"measurement": "IC50", "setting": "CCR2", "value": "> 200", "unit": "nM"}
    ]},
    {"smiles": "CO[C@@H]1COCC[C@@H]1N[C@@H]1C[C@H]2OCC[C@@]2(C(=O)N2CCc3ncc(C(F)(F)F)cc3C2)C1.O=C(O)CCC(=O)O", "note": "[Example 30, ((3aS,5S,6aR)-5-((3S,4S)-3-methoxytetrahydro-2H-pyran-4-ylamino)hexahydro-2H-cyclopenta[b]furan-3a-yl)(3-(trifluoromethyl)-7,8-dihydro-1,6-naphthyridin-6(5H)-yl)methanone succinate]", "values": [
      {"measurement": "EC50", "setting": "hCCR2KI mice; Mus musculus, 0.5 h, read-out: cmax EC50 in plasma", "value": 97, "unit": "nM"},
      {"measurement": "inhibition of thioglycollate induced cellular infiltrate", "setting": "hCCR2KI mice; mouse, in vivo, succinate", "value": "51% and 67% and 95%"},
      {"measurement": "reduction of high fat-diet induced body weight", "setting": "[2]; 1 mg/kg p.o. bid, after 32-days treatment (p>0.05)", "value": 4.94, "unit": "%"},
      {"measurement": "reduction of high fat-diet induced body weight", "setting": "[2]; 3 mg/kg p.o. bid, after 32-days treatment (p<0.01)", "value": 10.94, "unit": "%"},
      {"measurement": "reduction of high fat-diet induced body weight", "setting": "[2]; 10 mg/kg p.o. bid, after 32-days treatment (p<0.01)", "value": 15.7, "unit": "%"}
    ]},
    {"smiles": "COc1cccc(C2CCN([C@@H]3C[C@H]4OCC[C@@]4(C(=O)N4CCc5ncc(C(F)(F)F)cc5C4)C3)CC2)c1", "note": "[Example 33, ((3aS,5S,6aR)-5-(4-(3-methoxyphenyl)piperidin-1-yl)hexahydro-2H-cyclopenta[b]furan-3a-yl)(3-(trifluoromethyl)-7,8-dihydro-1,6-naphthyridin-6(5H)-yl)methanone]", "values": [
      {"measurement": "IC50", "setting": "CCR2", "value": "< 50", "unit": "nM"}
    ]},
    {"smiles": "O=C(N1COc2ccc(C(F)(F)F)cc2C1)[C@@]12CCO[C@@H]1C[C@@H](N1CCC(c3ccccc3)CC1)C2", "note": "[Example 38, ((3aS,5S,6aR)-5-(4-phenylpiperidin-1-yl)hexahydro-2H-cyclopenta[b]furan-3a-yl)(6-(trifluoromethyl)-2H-benzo[e][1,3]oxazin-3(4H)-yl)methanone]", "values": [
      {"measurement": "IC50", "setting": "CCR2", "value": "100 to 200", "unit": "nM"}
    ]},
    {"smiles": "CN(C)C(=O)c1cccc(C2CCN([C@@H]3C[C@H]4OCC[C@@]4(C(=O)N4COc5ccc(C(F)(F)F)cc5C4)C3)CC2)c1", "note": "[Example 39, N,N-dimethyl-3-(1-((3aS,5S,6aR)-3a-(6-(trifluoromethyl)-3,4-dihydro-2H-benzo[e][1,3]oxazine-3-carbonyl)hexahydro-2H-cyclopenta[b]furan-5-yl)piperidin-4-yl)benzamide]", "values": [
      {"measurement": "IC50", "setting": "CCR2", "value": "< 50", "unit": "nM"}
    ]},
    {"smiles": "COCCN([C@@H]1C[C@H]2OCC[C@@]2(C(=O)N2CCc3ncc(C(F)(F)F)cc3C2)C1)[C@H]1CCOC[C@H]1OC", "note": "[Example 41, ((3aS,5S,6aR)-5-((2-methoxyethyl)((3S,4S)-3-methoxytetrahydro-2H-pyran-4-yl)amino)hexahydro-2H-cyclopenta[b]furan-3a-yl)(3-(trifluoromethyl)-7,8-dihydro-1,6-naphthyridin-6(5H)-yl)methanone]", "values": [
      {"measurement": "IC50", "setting": "CCR2", "value": "> 200", "unit": "nM"}
    ]},
    {"smiles": "COCCOCCOCCOCCCN([C@@H]1C[C@H]2OCC[C@@]2(C(=O)N2CCc3ncc(C(F)(F)F)cc3C2)C1)[C@H]1CCOC[C@H]1OC", "note": "[Example 42, ((3aS,5S,6aR)-5-(((3S,4S)-3-methoxytetrahydro-2H-pyran-4-yl)(2,5,8,11-tetraoxatetradecan-14-yl)amino)hexahydro-2H-cyclopenta[b]furan-3a-yl)(3-(trifluoromethyl)-7,8-dihydro-1,6-naphthyridin-6(5H)-yl)methanone]", "values": [
      {"measurement": "IC50", "setting": "CCR2", "value": "> 200", "unit": "nM"}
    ]},
    {"smiles": "CO[C@@H]1COCC[C@@H]1N[C@@H]1C[C@H]2OCC[C@@]2(C(=O)N2CCc3ncc(C(F)(F)F)cc3C2)C1", "note": "[maleate salt, ((3aS,5S,6aR)-5-(((3S,4S)-3-methoxytetrahydro-2H-pyran-4-yl)amino)hexahydro-2H-cyclopenta[b]furan-3a-yl)(3-(trifluoromethyl)-7,8-dihydro-1,6-naphthyridin-6(5H)-yl)methanone]", "values": [
      {"measurement": "hygroscopic weight increase", "setting": "[1]; up to 70% RH", "value": 18.3, "unit": "%"},
      {"measurement": "total hygroscopic weight increase (uptake)", "setting": "[1]", "value": 79.9, "unit": "%"}
    ]},
    {"smiles": "CO[C@@H]1COCC[C@@H]1N[C@@H]1C[C@H]2OCC[C@@]2(C(=O)N2CCc3ncc(C(F)(F)F)cc3C2)C1", "note": "[phosphate salt, ((3aS,5S,6aR)-5-(((3S,4S)-3-methoxytetrahydro-2H-pyran-4-yl)amino)hexahydro-2H-cyclopenta[b]furan-3a-yl)(3-(trifluoromethyl)-7,8-dihydro-1,6-naphthyridin-6(5H)-yl)methanone]", "values": [
      {"measurement": "hygroscopic weight increase", "setting": "[1]; up to 60% RH", "value": 3.3, "unit": "%"},
      {"measurement": "total hygroscopic weight increase (uptake)", "setting": "[1]", "value": 69.4, "unit": "%"}
    ]},
    {"smiles": "CO[C@@H]1COCC[C@@H]1N[C@@H]1C[C@H]2OCC[C@@]2(C(=O)N2CCc3ncc(C(F)(F)F)cc3C2)C1", "note": "[sulfate salt, ((3aS,5S,6aR)-5-(((3S,4S)-3-methoxytetrahydro-2H-pyran-4-yl)amino)hexahydro-2H-cyclopenta[b]furan-3a-yl)(3-(trifluoromethyl)-7,8-dihydro-1,6-naphthyridin-6(5H)-yl)methanone]", "values": [
      {"measurement": "hygroscopic weight increase", "setting": "[1]; up to 60% RH", "value": 1.6, "unit": "%"},
      {"measurement": "total hygroscopic weight increase (uptake)", "setting": "[1]", "value": 26.5, "unit": "%"}
    ]}
  ]
}
